Laboratory results as given in patent publication US20250241879A1, “CAPSAICIN SEQUENTIAL DOSING METHOD FOR TREATMENT OF KNEE JOINT PAIN” (priority 2018, published 2025).

System: human patients with bilateral knee osteoarthritis
Test: Procedure pain (NPRS) due to intraarticular trans-capsaicin, shortened cooling protocol, Breg pad vs Elasto-Gel wrap (Example 9)
Assay type: in vivo
Details: four patients (Example 9), 1 mg intraarticular
Procedure: Human patients experiencing osteoarthritic knee joint pain were subjected to two different protocols for intraarticular administration of trans-capsaicin. Temporary pain expected due to administration of capsaicin was analyzed, along with the intraarticular temperature of the knee joint and the temperature of the patient's skin in the area to be cooled.
(§1) One of the protocols utilized a Breg Knee WrapOn Polar Pad (as illustrated in FIG. 1) that utilizes circulating ice-water to achieve cooling, where the pad is placed on skin surrounding the knee in order to cool the knee joint. The other protocol utilized an Elasto-Gel All Purpose Therapy Wrap measuring 6 inches by 24 inches in size to cool the knee joint. The Elasto-Gel All Purpose Therapy Wrap was removed from a freezer (approximately 0° F.) just prior to use. A temperature probe was placed into the intraarticular space of the patient's knee joint to measure intraarticular temperature of the knee joint. A temperature probe was also placed on the skin in the area to be cooled in order to measure skin temperature in the area to be cooled. […]
as §1, with “by 24 inches, whereby the wrap is placed around the knee joint in order” for “by 24 inches in size”, “joint in order to cool” for “inches in size to cool”, “knee joint. At the discretion of the physician performing the procedure, in order to reduce discomfort for the patient, the protocol authorized the physician to instill a volume of 1-2 cc of 2% w/w lidocaine (without epinephrine) into the skin and subcutaneous tissue of the knee at the site of intra-articular probe insertion. A temperature” for “knee joint. A temperature”
Patients receiving cooling of the knee joint using the Elasto-Gel All Purpose Therapy Wrap were subjected to the following procedure: • Placement of intraarticular temperature probe and skin temperature probe. At the discretion of the physician performing the procedure, in order to reduce discomfort for the patient, the protocol authorized the physician to instill a volume of 1-2 cc of 2% w/w lidocaine (without epinephrine) into the skin and subcutaneous tissue of the knee at the site of intra-articular probe insertion. • Cooling using the designated technique was performed for 30 minutes (+/−2 minutes). • Cooling apparatus was removed from the patient's knee. • Intraarticular injection of lidocaine 2% w/w (without epinephrine) 15 mL solution into the patient's knee joint. • Intraarticular injection of the investigational medicinal product (IMP) was performed to deliver trans-capsaicin in the amount of 1 mg. The trans-capsaicin was injected, using the same needle as the lidocaine 2% w/w (without epinephrine), 3 minutes after the intra-articular injection of lidocaine 2% w/w (without epinephrine). The IMP was provided as a pre-filled syringe containing 2 mL of fluid containing trans-capsaicin at a concentration of 0.5 mg/mL. • Knee joint was flexed and extended five times over 1 minute to ensure appropriate distribution of IMP. • The temperature probe was removed approximately 30 minutes after removal of the cooling apparatus.
Pain due to injection of trans-capsaicin was assessed on a Numerical Pain Rating scale (0-10) for 75 minutes after injection of trans-capsaicin. A verbal NPRS was used to assess procedure pain during the study. […]

## COc1cc(CNC(=O)CCCCC=CC(C)C)ccc1O [trans-capsaicin, N-[(4-hydroxy-3-methoxyphenyl)methyl]-8-methylnon-6-enamide]
Ice-Gel Pack (Elasto-Gel wrap), 30 min
  Knee Pain (NPRS): 0.0 (+/−0.0)
Ice-Gel Pack (Elasto-Gel wrap), 40 min
  Knee Pain (NPRS): 0.0 (+/−0.0)
Ice-Gel Pack (Elasto-Gel wrap), 50 min
  Knee Pain (NPRS): 1.5 (+/−2.4)
Ice-Gel Pack (Elasto-Gel wrap), 60 min
  Knee Pain (NPRS): 2.8 (+/−3.1)
Ice-Gel Pack (Elasto-Gel wrap), 70 min
  Knee Pain (NPRS): 1.0 (+/−0.8)
Ice-Gel Pack (Elasto-Gel wrap), 80 min
  Knee Pain (NPRS): 1.8 (+/−2.9)
Ice-Gel Pack (Elasto-Gel wrap), 90 min
  Knee Pain (NPRS): 2.5 (+/−2.9)
Ice-Gel Pack (Elasto-Gel wrap), 100 min
  Knee Pain (NPRS): 1.8 (+/−2.9)
Ice-Gel Pack (Elasto-Gel wrap), 110 min
  Knee Pain (NPRS): 0.8 (+/−1.5)
Ice-Gel Pack (Elasto-Gel wrap), Baseline
  Knee Pain (NPRS): 0.3 (+/−0.5)
Standard Cooling Device (Breg pad), 30 min
  Knee Pain (NPRS): 0.0 (+/−0.0)
Standard Cooling Device (Breg pad), 40 min
  Knee Pain (NPRS): 0.5 (+/−1.0)
Standard Cooling Device (Breg pad), 50 min
  Knee Pain (NPRS): 3.8 (+/−2.9)
Standard Cooling Device (Breg pad), 60 min
  Knee Pain (NPRS): 1.8 (+/−2.4)
Standard Cooling Device (Breg pad), 70 min
  Knee Pain (NPRS): 1.0 (+/−2.0)
Standard Cooling Device (Breg pad), 80 min
  Knee Pain (NPRS): 2.0 (+/−4.0)
Standard Cooling Device (Breg pad), 90 min
  Knee Pain (NPRS): 1.5 (+/−2.4)
Standard Cooling Device (Breg pad), 100 min
  Knee Pain (NPRS): 0.5 (+/−1.0)
Standard Cooling Device (Breg pad), 110 min
  Knee Pain (NPRS): 2.0 (+/−4.0)
Standard Cooling Device (Breg pad), Baseline
  Knee Pain (NPRS): 0.0 (+/−0.0)
